From patent US20050026270A1 (University of Maryland, priority 1999, published 2005)

Assays:
[1] = Stability of subtilin: activity retained after storage or exposure to light
[2] = 120 h

Row | Substance | loss of activity on exposure to light ([1]; exposure to light) | loss of activity on storage ([1]; stored at 4° C. or 20° C.) | activity remaining after storage [2]
1 | subtilin | rapid loss of activity | loses activity rapidly | 
2 | subtilin [stable subtilin] |  |  | greater than 50%
